Assay results taken from ChEMBL document CHEMBL5357023, “Synthesis and Evaluation of Benzylamine Inhibitors of Neuropathogenic Naegleria fowleri "Brain-Eating" Amoeba” (ACS Med Chem Lett, 2024).
≈ marks a conversion by molar mass, not a printed value.

Assays:
[1] = test system: SH-SY5Y; assay: Cytotoxicity against human SH-SY5Y cells assessed as reduction in cell viability at 20 uM incubated for 72 hrs by celltiter glow assay; format: functional
[2] = test system: Naegleria fowleri; assay: Anti-ameobic activity against Naegleria fowleri NF69 ATCC 30215 assessed as growth inhibition incubated for 48 hrs relative to control; format: functional, organism-based; conditions: for growth inhibition (GI): time 48 hrs
[3] = test system: Naegleria fowleri; assay: Anti-ameobic activity against Naegleria fowleri NF69 ATCC 30215 incubated for 48 hrs; format: functional, organism-based; conditions: NF69 ATCC 30215, 48 h
[4] = test system: SH-SY5Y; assay: Cytotoxicity against human SH-SY5Y cells assessed as reduction in cell viability at 1 uM incubated for 72 hrs by celltiter glow assay; format: functional
[5] = Lipophilicity, log D of the compound in octanol/phosphate buffer at pH 7.4 incubated for 2 mins by LC-MS analysis; format: physicochemical
[6] = Microsomal stability in CD-1 mouse liver microsome assessed as half life preincubated for 60 mins followed by NADPH addition and measured after 60 mins by HPLC analysis; format: ADME; conditions: liver microsomes, time 120 min
[7] = test system: SH-SY5Y; assay: Cytotoxicity against human SH-SY5Y cells assessed as reduction in cell viability incubated for 72 hrs by celltiter glow assay; format: functional
[8] = Kinetic solubility of compound in phosphate buffer at pH 7.4 incubated for 24 hrs by HPLC analysis; format: physicochemical; conditions: read-out: Kinetic_solubility
[9] = Permeability of compound incubated for 18 hrs by PAMPA assay; format: ADME; conditions: read-out: permeability
[10] = Stability in CD-1 mouse plasma assessed as parent compound remaining incubated for 20 mins by LC-MS analysis; format: ADME, cell-free; conditions: read-out: Stability
[11] = Plasma protein binding in CD-1 mouse measured for 4 hrs by LC-MS/MS analysis; format: ADME, cell-free; conditions: read-out: PPB (converted)

SMILES | EC50 [3] | Cell viability remaining [1] | Activity [4] | growth inhibition (GI) [2] | other results
CC(C)(C)c1ccc(C(=O)Nc2cc(Cl)cnc2C(=O)[O-])cc1.[Na+] | – | 61% | – | – | EC50 ([2]; Naegleria fowleri, NF69 ATCC 30215, 48 h): > 10 µM
CC(Nc1cc(Cl)cnc1C(=O)O)c1ccc(C(C)(C)C)cc1 (stereo unspecified) | > 10 µM | 100% | 98% | 38.2% | –
COc1ccc(CNc2cc(Cl)cnc2C(=O)O)cc1 | > 10 µM | 95% | 98% | 6.6% | –
COc1ccc(CCNc2cc(Cl)cnc2C(=O)O)cc1 | > 10 µM | 71% | 95% | 12.9% | –
CC(C)(C)c1ccc(CNc2cncc(Cl)c2)cc1 | > 10 µM | 88% | 100% | 17.6% | –
CC(C)(C)c1ccc(CC(=O)Nc2cc(Cl)cnc2C(=O)O)cc1 | > 10 µM | 19% | 76% | 9.9% | –
CC(C)(C)c1ccc(CNc2cc(Cl)c(-c3ccccc3)nc2C(=O)O)cc1 | > 10 µM | 82% | 100% | 20.4% | –
CC(C)(C)c1ccc(Nc2cc(Cl)cnc2C(=O)O)cc1 | > 10 µM | 57% | 98% | 4.5% | –
CC(C)(C)c1ccc(CNc2cc(Cl)cnc2C(=O)O)s1 | > 10 µM | 90% | 95% | 0% | –
O=C(O)c1ncc(Cl)cc1NCCc1ccc(C(F)(F)F)cc1 | > 10 µM | 57% | 59% | 44.8% | –
CC(C)(C)c1ccc(CNc2scnc2C(=O)O)cc1 | > 10 µM | – | – | – | –
CC(C)(C)c1ccc(CNc2cc(Cl)cnc2C#N)cc1 | > 10 µM | 57% | 96% | 22.2% | –
CC(C)(C)c1ncc(CNc2cc(Cl)cnc2C(=O)O)s1 | > 10 µM | 67% | 95% | 0% | –
O=C(O)c1ncc(Cl)cc1NCc1ccc(C(F)(F)F)cc1 | > 10 µM | 66% | 78% | 29.5% | –
CC(C)(C)c1ccc(CNc2cc(Cl)c(Cl)nc2C(=O)O)cc1 | > 10 µM | 100% | 100% | 12.3% | –
CC(C)(C)c1ccc(CNc2cc(Cl)c(Br)nc2C(=O)O)cc1 | > 10 µM | 100% | 100% | 17.6% | –
CC(C)(C)c1ccc(CNc2cncnc2C(=O)O)cc1 | > 10 µM | – | – | – | –
O=C(O)c1ncc(Cl)cc1NCc1ccccc1 | > 10 µM | 95% | 95% | 0% | –
O=C(O)c1ncc(Cl)cc1NCc1ccc(F)cc1 | > 10 µM | 100% | 93% | 22.8% | –
Cc1ccc(CNc2cc(Cl)cnc2C(=O)O)cc1 | > 10 µM | 94% | 100% | 0% | –
NC(=O)N1c2ccccc2C=Cc2ccccc21 [CARBAMAZEPINE] | – | – | – | – | Papp at 18 h [9]: 6.63 ×10⁻⁶ cm/s
CC(C)(C)NCC(O)COc1cccc2c1CC(O)C(O)C2 (stereo unspecified) [NADOLOL] | – | – | – | – | Papp at 18 h [9]: < 0.01 ×10⁻⁶ cm/s

Second part, led by results:

EC50 [3] | SMILES | Cell viability remaining [1] | Activity [4] | growth inhibition (GI) [2] | other results
> 10 µM | CC(C)(C)c1ccc(CNc2cc(Cl)ncc2C(=O)O)cc1 | – | – | – | –
> 10 µM | CC(C)(C)c1ccc(S(=O)(=O)Nc2cc(Cl)cnc2C(=O)O)cc1 | 100% | 100% | 16.5% | –
> 10 µM | CC(C)(C)c1ccc(CNc2cc(Cl)cnc2C(N)=O)cc1 | 77% | 100% | 27.7% | –
> 10 µM | CC(C)(C)c1ccc(CCc2cc(Cl)cnc2C(=O)O)cc1 | 85% | 100% | 0% | –
5 µM | CC(C)(C)c1ccc(CNc2cc(F)cnc2C(=O)O)cc1 | 73% | 91% | 99.5% | –
5 µM | CC(C)(C)c1ccc(CNc2cc(-c3ccccc3)cnc2C(=O)O)cc1 | 81% | 100% | 99.3% | –
3.3 µM | CC(C)(C)c1ccc(CCNc2cc(Cl)cnc2C(=O)O)cc1 | 100% | 95% | 99.8% | –
11.5 µM | CC(C)(C)c1ccc(CNc2cc(N3CCOCC3)cnc2C(=O)O)cc1 | 75% | 85% | 52.8% | –
1.4 µM | Cc1cnc(C(=O)O)c(NCc2ccc(C(C)(C)C)cc2)c1 | 98% | 96% | 100.4% | logD at 2 min [5]: 2.4; half-life [6]: 49 min; CC50 [7]: > 20 µM; solubility kinetic at 24 h [8]: 208 µM (≈ 62.1 µg/mL)
1.1 µM | COc1cnc(C(=O)O)c(NCCc2ccc(C(C)(C)C)cc2)c1 | 57% | 87% | 100.4% | –
3 µM | CC(C)(C)c1ccc(CNc2cccnc2C(=O)O)cc1 | 89% | 100% | 99.2% | –
0.92 µM | COc1cnc(C(=O)O)c(NCc2ccc(C(C)(C)C)cc2)c1 | 100% | 98% | 100.3% | Papp at 18 h [9]: 9.69 ×10⁻⁶ cm/s; logD at 2 min [5]: 2.3; remaining at 20 min [10]: 92%; fraction unbound at 4 h [11]: 0.003; half-life [6]: 72 min; CC50 [7]: > 20 µM; solubility kinetic at 24 h [8]: 199 µM (≈ 62.6 µg/mL)
6 µM | CC(C)(C)c1ccc(CNc2cc(Cl)cnc2C(=O)O)cc1 | 53% | 85% | 98.8% | Papp at 18 h [9]: 8.5 ×10⁻⁶ cm/s; logD at 2 min [5]: 2.3; remaining at 20 min [10]: 93%; fraction unbound at 4 h [11]: 0.009; half-life [6]: 38 min; CC50 [7]: > 20 µM; solubility kinetic at 24 h [8]: 84 µM (≈ 26.8 µg/mL)
7.2 µM | CC(C)(C)c1ccc(CNc2cc(Br)cnc2C(=O)O)cc1 | 85% | 99% | 84.4% | –
35.7 µM | CCCCCCCCCCCCCCCCOP(=O)([O-])OCC[N+](C)(C)C [MILTEFOSINE] | – | – | – | –
